Experiment: Electrochemical characteristics of β-galactosidase labeled substrates and their cleaved labels
Assay type: physicochemical
Details: for Reversible?: electrochemical reversibility, per oxidation potential listed; for Elec. Active?: scanned in the potential range −0.6 V to +1.0 V vs. Ag/AgCl
Excerpt: When cleaved from the substrate, the label should be electrochemically active in this same potential range.

Compound	electrochemical activity at the measurement potential (before and after cleavage)	Reversible?	Elec. Active?	Eox vs. Ag/AGCL [V]
O=c1ccc2nc3ccc(O[C@@H]4O[C@H](CO)[C@H](O)[C@H](O)[C@H]4O)cc3oc-2c1 [resorufin-β-D-galactopyranoside]	electrochemically active at the measurement potential before and after cleavage	Yes	yes	−0.100
COc1ccc(O[C@@H]2O[C@H](CO)[C@H](O)[C@H](O)[C@H]2O)c2ccccc12		quasi, no	yes	
O=c1ccc2nc3ccc(O)cc3oc-2c1 [resorufin]		yes	yes	−0.100
COc1ccc(O)c2ccccc12 [4-methoxy-1-naphthol]		quasi, no	yes	
Nc1ccc(O[C@@H]2O[C@H](CO)[C@H](O)[C@H](O)[C@H]2O)cc1 [p-aminophenyl-β-D-galactyopyranoside, p-aminophenyl-β-D-galactopyranoside]			no	
OCCOCCOCCOc1ccc(O[C@@H]2O[C@H](CO)[C@H](O)[C@H](O)[C@H]2O)c2ccccc12		no, no	yes	
OCCOCCOCCOc1ccc(O)c2ccccc12 [4-(1,4,7, 10-tetraoxadecyl)-1-naphthol]		no	yes	

Reference: patent publication US20030017519A1, “Electrochemical enzyme assay” (priority 1993, published 2003)
